Assays:
HCC827 = assay: cells; details: Homo sapiens, HCC827, 72 h
A-431 = assay: cells; details: Homo sapiens, A-431, 72 h
NCI-H1975 [1] = assay: cells; details: Homo sapiens, NCI-H1975, 72 h
MDA-MB-453 = assay: Antiproliferative activity against human MDA-MB-453 cells after 72 hrs by CCK8 assay; type: functional, cell-based; details: MDA-MB-453, 72 h
[2] = biological target: Epidermal growth factor receptor (Homo sapiens, UniProt P00533); assay: Inhibition of recombinant human GST-tagged EGFR catalytic domain (668 to 1210 residues) expressed in baculovirus expression system using TK-biotin peptide as substrate measured after 10 mins by HTRF assay
Sequence of Epidermal growth factor receptor (P00533 whole entry, the tested form may be a part): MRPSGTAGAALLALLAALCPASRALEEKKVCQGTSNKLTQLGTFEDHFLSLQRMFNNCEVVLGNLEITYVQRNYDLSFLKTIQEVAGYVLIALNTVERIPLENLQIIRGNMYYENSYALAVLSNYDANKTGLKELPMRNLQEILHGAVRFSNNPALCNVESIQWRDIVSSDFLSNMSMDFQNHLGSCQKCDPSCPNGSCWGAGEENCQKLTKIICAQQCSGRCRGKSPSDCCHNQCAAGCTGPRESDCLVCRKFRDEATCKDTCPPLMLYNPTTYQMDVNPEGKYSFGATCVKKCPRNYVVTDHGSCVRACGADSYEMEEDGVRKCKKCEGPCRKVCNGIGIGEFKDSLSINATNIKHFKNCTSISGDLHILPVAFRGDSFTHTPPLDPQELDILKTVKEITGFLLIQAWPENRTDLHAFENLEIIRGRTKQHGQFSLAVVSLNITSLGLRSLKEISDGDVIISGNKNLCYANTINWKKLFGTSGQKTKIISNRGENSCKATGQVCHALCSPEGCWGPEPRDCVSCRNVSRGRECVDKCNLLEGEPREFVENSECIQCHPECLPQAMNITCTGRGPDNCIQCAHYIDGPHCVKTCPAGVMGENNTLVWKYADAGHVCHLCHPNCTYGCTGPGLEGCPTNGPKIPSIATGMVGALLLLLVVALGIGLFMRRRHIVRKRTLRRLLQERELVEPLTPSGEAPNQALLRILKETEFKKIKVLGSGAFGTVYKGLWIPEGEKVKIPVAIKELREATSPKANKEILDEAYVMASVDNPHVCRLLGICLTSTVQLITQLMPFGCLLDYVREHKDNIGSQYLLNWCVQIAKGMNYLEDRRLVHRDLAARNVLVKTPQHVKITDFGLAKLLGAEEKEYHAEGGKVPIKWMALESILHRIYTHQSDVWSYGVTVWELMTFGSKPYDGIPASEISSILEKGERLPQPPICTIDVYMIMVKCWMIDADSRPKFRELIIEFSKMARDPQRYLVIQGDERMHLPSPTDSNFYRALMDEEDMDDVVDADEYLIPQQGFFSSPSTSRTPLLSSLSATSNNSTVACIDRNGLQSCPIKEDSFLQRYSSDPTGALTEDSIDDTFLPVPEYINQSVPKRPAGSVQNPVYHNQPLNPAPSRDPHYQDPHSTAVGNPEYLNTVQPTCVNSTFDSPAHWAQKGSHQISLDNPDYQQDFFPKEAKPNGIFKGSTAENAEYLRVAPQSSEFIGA

NCI-H1975 [3] = assay: Antitumor activity against human NCI-H1975 cells harboring EGFR T790M mutant xenografted in BALB/c mouse assessed as tumor growth inhibition at 5 mg/kg, po administered daily via gavage for 14 days measured at 7 days post last dose relative to control; type: functional
NCI-H1975 [4] = assay: Antitumor activity against human NCI-H1975 cells harboring EGFR T790M mutant xenografted in BALB/c mouse assessed as tumor growth inhibition at 20 mg/kg, po administered every other day via gavage for 14 days measured at 7 days post last dose relative to control; type: functional
[5] = Cmax in Sprague-Dawley rat at 5 mg/kg, iv or 10 mg/kg, po; type: ADME, organism-based; details: in vivo
NCI-H1975 [6] = assay: Antitumor activity against human NCI-H1975 cells harboring EGFR T790M mutant xenografted in BALB/c mouse assessed as tumor growth inhibition at 80 mg/kg, po administered every other day via gavage for 14 days measured at 7 days post last dose relative to control; type: functional
[7] = Half life in Sprague-Dawley rat at 5 mg/kg, iv or 10 mg/kg, po; type: ADME, organism-based; details: in vivo
[8] = Oral bioavailability in Sprague-Dawley rat at 10 mg/kg; type: ADME, organism-based; details: in vivo
[9] = Tmax in Sprague-Dawley rat at 5 mg/kg, iv or 10 mg/kg, po; type: ADME, organism-based; details: in vivo
NCI-H1975 [10] = assay: Antitumor activity against human NCI-H1975 cells harboring EGFR T790M mutant xenografted in BALB/c mouse assessed as tumor growth inhibition at 20 mg/kg, po administered daily via gavage for 14 days measured at 7 days post last dose relative to control; type: functional
NCI-H1975 [11] = assay: Antitumor activity against human NCI-H1975 cells harboring EGFR T790M mutant xenografted in po dosed BALB/c mouse assessed as tumor growth inhibition administered via gavage qd or qod for 14 days measured at 7 days post last dose; type: functional, organism-based

IC50 (HCC827) | IC50 (A-431) | IC50 (NCI-H1975 [1]) | IC50 (MDA-MB-453) | Compound | further results
2.9 nM | 64.1 nM | 107 nM | 2.55 nM | CCOCCOc1cc2ncnc(Nc3ccc(OCC(F)(F)F)c(Cl)c3)c2cc1NC(=O)/C=C/CN(C)C | 
6.39 nM | 572 nM | 39.4 nM | 15.1 nM | C=C(Br)C(=O)Nc1cc2c(Nc3ccc(F)c(Cl)c3)ncnc2cc1OCCOCC | 
 | 16.7 nM | 66.5 nM |  | COC[C@H](C)Oc1cc2ncnc(Nc3ccc(F)c(Cl)c3)c2cc1NC(=O)/C=C/CN(C)C | 
1.46 nM | 11.4 nM | 49.3 nM | 3.42 nM | C#CC(=O)Nc1cc2c(Nc3ccc(F)c(Cl)c3)ncnc2cc1OCCOCC | 
3.43 nM | 20.1 nM | 7.3 nM | 1.65 nM | CCOCCOc1cc2ncnc(Nc3ccc(OCCOC)c(Cl)c3)c2cc1NC(=O)/C=C/CN(C)C | 
33.2 nM | 369 nM | 37.1 nM | 3.71 nM | C=C(Cl)C(=O)Nc1cc2c(Nc3ccc(F)c(Cl)c3)ncnc2cc1OCCOCC | 
 | 24 nM | 1.6 nM |  | CCOCCOc1cc2ncnc(Nc3ccc(F)c(Cl)c3)c2cc1NC(=O)/C=C\Cl | 
0.29 nM |  |  |  | COCCCOc1cc2ncnc(Nc3ccc(F)c(Cl)c3)c2cc1NC(=O)/C=C/CN(C)C | 
0.987 nM | 207 nM | 35.2 nM | 21.6 nM | CCOCCOc1cc2ncnc(Nc3ccc(F)c(Cl)c3)c2cc1NC(=O)/C=C/C(=O)OCC | 
 | 79.5 nM | 49.7 nM |  | CCOCCOc1cc2ncnc(Nc3ccc(OCc4cccc(F)c4)c(Cl)c3)c2cc1NC(=O)/C=C/CN(C)C | 

Continued, compound first:

Compound | IC50 (HCC827) | IC50 (A-431) | IC50 (NCI-H1975 [1]) | IC50 (MDA-MB-453) | further results
CCOCCOc1cc2ncnc(Nc3ccc(F)c(Cl)c3)c2cc1NC(=O)/C=C/CN(C)C [listing 1 of 2 here] | 0.31 nM | 1.52 nM |  | 0.62 nM | IC50 [2]: 0.69 nM; inhibition in vivo at 5 mg/kg (NCI-H1975 [3]): 73.2%; inhibition in vivo at 20 mg/kg (NCI-H1975 [4]): 82%; Cmax [5]: 92.3 ng/mL; inhibition in vivo at 80 mg/kg (NCI-H1975 [6]): 95.1%; half-life [7]: 6.8 h; bioavailability [8]: 46%; Tmax [9]: 4 h
CCOCCOc1cc2ncnc(Nc3ccc(NCCS(C)(=O)=O)c(Cl)c3)c2cc1NC(=O)/C=C/CN(C)C | 0.53 nM | 6.48 nM | 65.6 nM | 12.7 nM | 
CCCOCCOc1cc2ncnc(Nc3ccc(F)c(Cl)c3)c2cc1NC(=O)/C=C/CN(C)C | 0.55 nM | 8.15 nM |  |  | 
CN(C)C/C=C/C(=O)Nc1cc2c(Nc3ccc(F)c(Cl)c3)ncnc2cc1O[C@H]1CCOC1 [AFATINIB] |  |  |  |  | inhibition in vivo at 20 mg/kg (NCI-H1975 [10]): 67.6%
CCOCCOc1cc2ncnc(Nc3ccc(F)c(Cl)c3)c2cc1NC(=O)/C=C/CN(C)C [listing 2 of 2 here] |  |  |  |  | TGI (NCI-H1975 [11]): Dose-dependent effect
C=CC(=O)Nc1cc2c(Nc3ccc(F)c(Cl)c3)ncnc2cc1OCCOCC | 0.15 nM | 6.01 nM | 51.8 nM | 5.67 nM | 
C=C(F)C(=O)Nc1cc2c(Nc3ccc(F)c(Cl)c3)ncnc2cc1OCCOCC | 0.53 nM | 54.5 nM | 72.5 nM | 58.2 nM | 
CCOCCOc1cc2ncnc(Nc3ccc(F)c(Cl)c3)c2cc1NC(=O)/C=C\C#N | 5.56 nM | 94.8 nM | 18.4 nM | 0.68 nM | 
COC[C@@H](C)Oc1cc2ncnc(Nc3ccc(F)c(Cl)c3)c2cc1NC(=O)/C=C/CN(C)C |  | 43 nM | 49.9 nM |  | 
CCOCCOc1ccc(Nc2ncnc3cc(OCCOCC)c(NC(=O)/C=C/CN(C)C)cc23)cc1Cl | 0.34 nM | 13.7 nM | 6.17 nM | 2.52 nM | 
CCOCCOc1cc2ncnc(Nc3ccc(F)c(Cl)c3)c2cc1NC(=O)/C=C/Br | 4.86 nM | 297 nM | 8.21 nM | 3.99 nM | 
C=CS(=O)(=O)Nc1cc2c(Nc3ccc(F)c(Cl)c3)ncnc2cc1OCCOCC | 3.95 nM | 3.37 nM | 13.7 nM | 130 nM | 
CCOCCOc1cc2ncnc(Nc3ccc(F)c(Cl)c3)c2cc1NC(=O)/C=C/CN(C)C.O=C(O)/C=C\C(=O)O |  |  |  |  | bioavailability [8]: 70%
CCOCCOc1cc2ncnc(Nc3ccc(F)c(Cl)c3)c2cc1NC(=O)/C=C/Cl |  | 289 nM | 7.43 nM | 14.9 nM | 
CCOCCOc1cc2ncnc(Nc3ccc(F)c(Cl)c3)c2cc1NC(=O)/C=C/C(F)(F)F | 0.15 nM | 148 nM | 27.6 nM | 18.3 nM | 
CC(C)OCCOc1cc2ncnc(Nc3ccc(F)c(Cl)c3)c2cc1NC(=O)/C=C/CN(C)C | 0.55 nM | 5.86 nM |  |  | 
